pIC50: −log10 of the molar value.
Key:
[1] = tested on: KRAS G12V dependent lung adenocarcinoma cell line, NCI-H441; test: Cellular pERK (Thr202/Tyr204) FRET/HTRF assay; assay type: cell-based; details: Homo sapiens, NCI-H441, cellular pERK (Thr202/Tyr204) HTRF, NCI-H441 cells
Outline: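 NCI-H441 cells (KRAS G12V) were seeded and grown overnight at 37 °C, 5% CO2, then treated with compound in DMSO for 1 hr. Lysates were probed with a Eu3+-cryptate/d2 antibody sandwich against pERK1/2 Thr202/Tyr204 and read by HTRF at 665 nm; IC50 from curve fitting.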

[2] = Pharmacokinetic evaluation, single dosing (oral and intravenous) in rats; assay type: in vivo, male Sprague-Dawley rats; set-up: unit not given here; details: rat, plasma
Method: Pharmacokinetic profile for test compound was measured by single dosing in male Sprague-Dawley rats. Animal weights were typically over 200 grams, and animals were allowed to acclimate to their new environment for at least 3 days prior to the initiation of any studies. One set of animals was dosed intravenous with test compound, 2 mg/kg in 20% PEG400, 10% HS-15 Solutol, 70% 50 mM citrate buffer (pH 4.0). Intravenous dosing solution concentration was 1.0 mg/mL. Time of blood sampling was 5 minutes, 15 minutes, 30 minutes, 1 hour, 2 hours, 4 hours, 8 hours, and 24 hours following intravenous dosing. Another set of animals was dosed orally with test compound, 30 mg/kg in 20% PEG400, 10% HS-15 Solutol, 70% 50 mM citrate buffer (pH 4.0). Oral dosing solution concentration was 3.0 mg/mL. Time of blood sampling was 15 minutes, 30 minutes, 1 hour, 2 hours, 4 hours, 8 hours, and 24 hours following oral dosing. Blood samples (˜0.2 mL/sample) were collected via jugular vein and placed in tubes containing Heparin-Na. The blood samples in tubes were mixed and then placed on wet ice prior to centrifugation for plasma. The blood samples were centrifuged at 4000 g for 5 minutes at 4° C. to obtain plasma. The obtained plasma was separated and stored frozen at approximately −80° C.
All the plasma samples were analyzed using a Shimadzu (DGU-405) HPLC with an API 6500+MS/MS system following the manufacturer's instructions. All the analytes were detected with positive-mode electrospray ionization (ES+). A standard curve for each test compound was generated and used to measure test compound concentrations in the rat plasma samples. Based on the time course sampling, an area under the curve (AUC) was calculated for the oral group and intravenous group. The percentage of rat bioavailability is calculated based on the equation shown below.
where F is bioavailability, AUCPO is area under curve of oral dosing, AUCIV is area under curve of intravenous dosing, DoseIV is the intravenous dose and DosePO is the oral dose. The oral dosing for the experiments presented in Table 5 was performed at 10 mg/kg unless noted otherwise.

[2H]C([2H])(Oc1nc(N2CCOC[C@H]3[C@H](F)[C@H]32)c2cnc(-c3cc(N)cc4ccc(Cl)c(C#C)c34)c(F)c2n1)[C@@]12CCCN1C[C@H](F)C2 [Example 267, 6-Chloro-5-ethynyl-4-(8-fluoro-4-((1S,7S,8S)-8-fluoro-5-oxa-2-azabicyclo[5.1.0]octan-2-yl)-2-(((2R,7aS)-2-fluorotetrahydro-1H-pyrrolizin-7a(5H)-yl)methoxy-d2)pyrido[4,3-d]pyrimidin-7-yl)naphthalen-2-amine]
pIC50 [1]: > 7.30 | IV (dose 2 mg/kg) (AUC/D) (h*mg/mL) ([2]; intravenous, dose 2 mg/kg): 1066 | PO (dose 10 mg/kg) (AUC/D) (h*mg/mL) ([2]; oral, dose 10 mg/kg): 97

From patent US20250282799A1, “SUBSTITUTED PYRIDO[4,3-d]PYRIMIDINES AS KRAS MODULATORS” (Alterome Therapeutics, Inc., priority 2023, published 2025)
